{"source": "ChEMBL document CHEMBL1201862", "about": "“PubChem BioAssay data set” (2004)", "test_in_all_cases": "DTP human tumour cell line panel, 48 h", "key": {"786-0": {"system": "786-0"}, "A498": {"system": "A498"}, "A549": {"system": "A549"}, "ACHN": {"system": "ACHN"}, "BT-549": {"system": "BT-549"}, "CAKI-1": {"system": "CAKI-1"}, "CCRF-CEM": {"system": "CCRF-CEM"}, "COLO 205": {"system": "COLO 205"}, "DU-145": {"system": "DU-145"}, "EKVX": {"system": "EKVX"}, "HCC 2998": {"system": "HCC 2998"}, "HCT-116": {"system": "HCT-116"}, "HCT-15": {"system": "HCT-15"}, "HL-60": {"system": "HL-60"}, "HOP-62": {"system": "HOP-62"}, "HOP-92": {"system": "HOP-92"}, "HT-29": {"system": "HT-29"}, "Hs-578T": {"system": "Hs-578T"}, "IGROV-1": {"system": "IGROV-1"}, "K562": {"system": "K562"}, "KM12": {"system": "KM12"}, "LOX IMVI": {"system": "LOX IMVI"}, "M14": {"system": "M14"}, "MCF7": {"system": "MCF7"}, "MDA-MB-231": {"system": "MDA-MB-231"}, "MDA-MB-435": {"system": "MDA-MB-435"}, "MDA-N": {"system": "MDA-N"}, "MOLT-4": {"system": "MOLT-4"}, "Malme-3M": {"system": "Malme-3M"}, "NCI-H226": {"system": "NCI-H226"}, "NCI-H23": {"system": "NCI-H23"}, "NCI-H460": {"system": "NCI-H460"}, "NCI-H522": {"system": "NCI-H522"}, "NCI/ADR-RES": {"system": "NCI/ADR-RES"}, "OVCAR-3": {"system": "OVCAR-3"}, "OVCAR-4": {"system": "OVCAR-4"}, "OVCAR-5": {"system": "OVCAR-5"}, "OVCAR-8": {"system": "OVCAR-8"}, "PC-3": {"system": "PC-3"}, "RPMI-8226": {"system": "RPMI-8226"}, "RXF 393": {"system": "RXF 393"}, "SF-268": {"system": "SF-268"}, "SF-295": {"system": "SF-295"}, "SF-539": {"system": "SF-539"}, "SK-MEL-2": {"system": "SK-MEL-2"}, "SK-MEL-5": {"system": "SK-MEL-5"}, "SK-OV-3": {"system": "SK-OV-3"}, "SN12C": {"system": "SN12C"}, "SNB-19": {"system": "SNB-19"}, "SNB-75": {"system": "SNB-75"}, "SR": {"system": "SR"}, "SW-620": {"system": "SW-620"}, "T47D": {"system": "T47D"}, "TK-10": {"system": "TK-10"}, "U-251": {"system": "U-251"}, "UACC-257": {"system": "UACC-257"}, "UACC-62": {"system": "UACC-62"}, "UO-31": {"system": "UO-31"}}, "note": "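Growth conditions: 96-well plates. Treatment: test compound, 48 hours, 5 concentrations. Analysis: linear interpolation between bracketing concentrations; unreached endpoints set to highest concentration. At the GI50, growth is halved.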 Activity calls are given as the source filed them. No stated cut-off is given here; in the data, active = GI50 up to about 1.1 µM and inactive = higher.", "data": [{"smiles": "O=c1[nH]c(Br)nc2[nH]nnc12", "values": [{"measurement": "GI50", "setting": "786-0", "value": "25.1 µM (inactive)"}, {"measurement": "GI50", "setting": "A498", "value": "> 100 µM (inactive)"}, {"measurement": "GI50", "setting": "A549", "value": "> 100 µM (inactive)"}, {"measurement": "GI50", "setting": "ACHN", "value": "> 100 µM (inactive)"}, {"measurement": "GI50", "setting": "BT-549", "value": "18.1 µM (inactive)"}, {"measurement": "GI50", "setting": "CAKI-1", "value": "7.08 µM (inactive)"}, {"measurement": "GI50", "setting": "CCRF-CEM", "value": "7.55 µM (inactive)"}, {"measurement": "GI50", "setting": "COLO 205", "value": "> 100 µM (inactive)"}, {"measurement": "GI50", "setting": "DU-145", "value": "14.1 µM (inactive)"}, {"measurement": "GI50", "setting": "EKVX", "value": "70.1 µM (inactive)"}, {"measurement": "GI50", "setting": "HCC 2998", "value": "> 100 µM (inactive)"}, {"measurement": "GI50", "setting": "HCT-116", "value": "32 µM (inactive)"}, {"measurement": "GI50", "setting": "HCT-15", "value": "> 100", "unit": "µM"}, {"measurement": "GI50", "setting": "HL-60", "value": "5.52 µM (inactive)"}, {"measurement": "GI50", "setting": "HOP-62", "value": "17.7 µM (inactive)"}, {"measurement": "GI50", "setting": "HOP-92", "value": "> 100 µM (inactive)"}, {"measurement": "GI50", "setting": "HT-29", "value": "> 100 µM (inactive)"}, {"measurement": "GI50", "setting": "Hs-578T", "value": "38.3 µM (inactive)"}, {"measurement": "GI50", "setting": "IGROV-1", "value": "> 100 µM (inactive)"}, {"measurement": "GI50", "setting": "K562", "value": "9.4 µM (inactive)"}, {"measurement": "GI50", "setting": "KM12", "value": "> 100 µM (inactive)"}, {"measurement": "GI50", "setting": "LOX IMVI", "value": "6.89 µM (inactive)"}, {"measurement": "GI50", "setting": "M14", "value": "19.8 µM (inactive)"}, {"measurement": "GI50", "setting": "MCF7", "value": "74.1 µM (inactive)"}, {"measurement": "GI50", "setting": "MDA-MB-231", "value": "34.7 µM (inactive)"}, {"measurement": "GI50", "setting": "MDA-MB-435", "value": "19.3 µM (inactive)"}, {"measurement": "GI50", "setting": "MDA-N", "value": "38.9 µM (inactive)"}, {"measurement": "GI50", "setting": "MOLT-4", "value": "2.73 µM (inactive)"}, {"measurement": "GI50", "setting": "Malme-3M", "value": "6.95 µM (inactive)"}, {"measurement": "GI50", "setting": "NCI-H226", "value": "> 100 µM (inactive)"}, {"measurement": "GI50", "setting": "NCI-H23", "value": "> 100 µM (inactive)"}, {"measurement": "GI50", "setting": "NCI-H460", "value": "> 100 µM (inactive)"}, {"measurement": "GI50", "setting": "NCI-H522", "value": "> 100 µM (inactive)"}, {"measurement": "GI50", "setting": "NCI/ADR-RES", "value": "10.4 µM (inactive)"}, {"measurement": "GI50", "setting": "OVCAR-3", "value": "> 100 µM (inactive)"}, {"measurement": "GI50", "setting": "OVCAR-4", "value": "85.5 µM (inactive)"}, {"measurement": "GI50", "setting": "OVCAR-5", "value": "> 100 µM (inactive)"}, {"measurement": "GI50", "setting": "OVCAR-8", "value": "8.79 µM (inactive)"}, {"measurement": "GI50", "setting": "PC-3", "value": "69.5 µM (inactive)"}, {"measurement": "GI50", "setting": "RPMI-8226", "value": "17.9 µM (inactive)"}, {"measurement": "GI50", "setting": "RXF 393", "value": "35 µM (inactive)"}, {"measurement": "GI50", "setting": "SF-268", "value": "11 µM (inactive)"}, {"measurement": "GI50", "setting": "SF-295", "value": "72.8 µM (inactive)"}, {"measurement": "GI50", "setting": "SF-539", "value": "16.7 µM (inactive)"}, {"measurement": "GI50", "setting": "SK-MEL-2", "value": "8.24 µM (inactive)"}, {"measurement": "GI50", "setting": "SK-MEL-5", "value": "68.9 µM (inactive)"}, {"measurement": "GI50", "setting": "SK-OV-3", "value": "39.3 µM (inactive)"}, {"measurement": "GI50", "setting": "SN12C", "value": "32.4 µM (inactive)"}, {"measurement": "GI50", "setting": "SNB-19", "value": "> 100 µM (inactive)"}, {"measurement": "GI50", "setting": "SNB-75", "value": "23.1 µM (inactive)"}, {"measurement": "GI50", "setting": "SR", "value": "42.2 µM (inactive)"}, {"measurement": "GI50", "setting": "SW-620", "value": "45.8 µM (inactive)"}, {"measurement": "GI50", "setting": "T47D", "value": "26.2 µM (inactive)"}, {"measurement": "GI50", "setting": "TK-10", "value": "54.6 µM (inactive)"}, {"measurement": "GI50", "setting": "U-251", "value": "68.7 µM (inactive)"}, {"measurement": "GI50", "setting": "UACC-257", "value": "55.6 µM (inactive)"}, {"measurement": "GI50", "setting": "UACC-62", "value": "15.9 µM (inactive)"}, {"measurement": "GI50", "setting": "UO-31", "value": "11.7 µM (inactive)"}]}]}
